pIC50: −log10 of the molar value. Like-named read-outs stand apart in the source and are kept apart here.
How the values were obtained:
Assay type in all cases: in vitro ADME
[1] = In-vitro half-life in human liver microsomes; conditions: Human liver microsomes 0.5 mg/mL; 1 μg/mL drug; NRS; read-out: Metabolic Half-life
Experimental: (§1) In each of the species (human, rat, mouse) of liver matrix to be tested, a working concentration of 2 μg/mL was prepared of each test article from the 0.5 mg/mL DMSO stock solution by adding 3 μL of 0.5 mg/mL test article stock solution to 747 μL of the 1 mg/mL liver matrix. Incubation was performed at 37±2° C. with gentle, continuous mixing in shaking water bath in 2.0 mL-well capacity 96-Deepwell plates (96-DWP). Samples were retrieved in duplicate at the following time points: 0, 5, 10, 15, 30 and 60 minutes. The final mixture contained 1 μg/mL of drug and 0.5 mg/mL of liver matrix. First, 50 μL of test articles in liver matrix was added to the 96-DWP and pre-warmed the mixture in the 96-DWP for 2 minutes in the 37° C. water bath. The enzymatic reaction was started by the addition of 50 μL of the corresponding 2× NADPH regenerating system (NRS) cofactor solution to all sample wells and stopped by the addition of 300 μL of stop solution (acetonitrile containing 10 ng/mL Tolbutamide as an internal standard (I.Std.). The samples were agitated for 10 minutes and then centrifuged for 20 minutes at 4500 rpm. 25 μL of supernatant was diluted with 475 μL acetonitrile containing I. Std. into a new 96-DWPs for LC-MS/MS analysis.
(§2) Half-life calculations were generated and calculated by Graphpad Prism® software. The half-life of test compound was calculated based on the first-order reaction kinetics. The data was transformed to linear regression (y=log(y) where “y” axis represents the % compound remaining at any given time with respect to time 0 minutes; “x” axis represents time in minutes) in order to calculate the half-life.
(§3) A comparison of metabolic stability in time-course incubation experiments in varying species of liver can provide information of pharmacokinetic properties of drugs attributable to species-related differences in hepatic metabolism. The results of these experiments often assist in further applications such as assessing in vitro metabolite profiling and choosing relevant species for toxicology studies based on similarities relative to the metabolic stability to the human profile. For these experiments, the test compound was tested in parallel with a positive control, Dasatinab, in an enzymatic reaction solution of each species (human and rat) of liver microsomes containing a NADPH regenerating system (NRS). The final mixture contained 1 μg/mL of drug and 0.5 mg/mL of liver matrix. Incubations were performed at 37±2° C. with gentle, continuous mixing in shaking water bath in 96-Deep well plates. The stability of the test compound is monitored using fast, specific and sensitive LC/MS/MS analysis.

[2] = In-vitro half-life in rat liver microsomes; conditions: Rat liver microsomes 0.5 mg/mL; 1 μg/mL drug; NRS; read-out: Metabolic Half-life
Experimental: as §1, §2, §3

[3] = In-vitro half-life in mouse liver microsomes; conditions: Mouse liver microsomes 0.5 mg/mL; 1 μg/mL drug; NRS; read-out: Metabolic Half-life
Experimental: as §1, §2, §3

CYP2C9 = molecular target: T1, CYP2C9 (Homo sapiens, UniProt P11712); test: CYP-direct inhibition, CYP2C9
T1 construct: from tissue; host or cells: pooled human liver microsomes
Experimental: (§4) Many drugs inhibit cytochrome P450 enzymes to cause clinically significant changes in the pharmacokinetics of other drugs. In vitro cytochrome P450 inhibition, can provide crucial information in evaluating potential clinical drug-drug interactions and is useful for focusing in vivo tests to areas of concern. The cytochrome P450 inhibition assay was developed by preparing a working cocktail solution consisting of six probe substrates 10 μM ethoxy-resorufin (CYP1A2), 100 μM rosiglitazone (CYP2C8), 50 μM diclofenac (CYP2C9), 300 μM S-mephenytoin (CYP2C19), 50 μM dextromethorphan (CYP2D6), and 20 μM midazolam (CYP3A4). A mixture solution consists of 140 uL of 0.286 mg/mL of pooled human liver microsome working solution and 20 uL working solutions of test articles, standard control inhibitors, or positive control placebo and 20 uL of substrate cocktail mixture working solution was prepared. The mixture solution was pre-warm in a gentle shaking bath at 37±2° C. for 5 minutes. The enzymatic reaction started by adding 20 uL of NRS working solution to the mixture solution and incubated for 10 minutes at 37±2° C. To stop the reaction, an addition of 400 μL cold stop solution (acetonitrile containing 50 ng/mL Tolbutamide as an internal standard (I.Std.) was added to the mixture solution. The final concentration of test article, inhibitors, substrates, and cofactors are noted in Table 0.1 below. Two individual samples were prepared for each test compound. The extracted samples were vortexed and then centrifuged at 4500 rpm for 7 minutes using Eppendorf Centrifuge 5910R. 200 uL of supernatant was diluting with 200 uL of 50% Methanol into 96-DW plate for LC/MS/MS analysis
(§5) Concentration-response plots are used to determine the effects of an inhibitor on an enzymatic reaction. A typical concentration-response plot provides fractional activity (Y axis) is plotted as a function of log inhibitor concentration (X axis). The data are fitted using a standard Sigmoidal dose-response equation which is also called a […] logistic equation. The concentration of compound that results in 50% inhibition of maximal activity is termed as the IC50 (inhibitor concentration yielding 50% inhibition). IC50 value is calculated using Prism GraphPad software, version 9. […].
(§6) Cytochrome P450 inhibition of a drug is a key factor in determining pharmacokinetic drug-drug interactions. The objective of this study was to evaluate the inhibition potential of G9a inhibitors on six (6) major human cytochrome P450 enzymes, including CYP1A2, CYP2C8, CYP2C9, CYP2C19, CYP2D6, and CYP3A4. Inhibition was determined by using a substrate cocktail and analyzing the rate of specific metabolites formation. The cytochrome P450 inhibition assay was developed using a cocktail consisting of six (6) probe substrates ethoxy-resorufin (CYP1A2), rosiglitazone (CYP2C8), diclofenac (CYP2C9), S-mephenytoin (CYP2C19), dextromethorphan (CYP2D6), and midazolam (CYP3A4). The cocktail was incubated in human liver microsome with NADPH regenerating system (NRS) in a shaking bath at 37±2° C. The formation of specific metabolites was monitored by LC/MS/MS. Test compound was added to the cocktail-liver microsome mixture at varying concentrations and its effect on cytochrome P450 activity was determined by analyzing the rate of specific metabolite formation. The percent inhibition was calculated and plotted with reference to the concentration, and the IC50 value for inhibition was derived by fitting the data with a using log(inhibitor) vs. normalized response with variable slope least squares fit by Graphpad Prism® software. […].

CYP2C19 = molecular target: T2, CYP2C19 (Homo sapiens, UniProt P33261); test: CYP-direct inhibition, CYP2C19
T2 construct: from tissue; host or cells: pooled human liver microsomes
Experimental: as §4, §5, §6

CYP2D6 = molecular target: T3, CYP2D6 (Homo sapiens, UniProt P10635); test: CYP-direct inhibition, CYP2D6
T3 construct: from tissue; host or cells: pooled human liver microsomes
Experimental: as §4, §5, §6

CYP3A4 = molecular target: T4, CYP3A4 (Homo sapiens, UniProt P08684); test: CYP-direct inhibition, CYP3A4
T4 construct: from tissue; host or cells: pooled human liver microsomes
Experimental: as §4, §5, §6

[4] = human liver microsome, substrate dextromethorphan, read-out: IC50 CYP-2D6

T4 sequence (P08684 whole entry): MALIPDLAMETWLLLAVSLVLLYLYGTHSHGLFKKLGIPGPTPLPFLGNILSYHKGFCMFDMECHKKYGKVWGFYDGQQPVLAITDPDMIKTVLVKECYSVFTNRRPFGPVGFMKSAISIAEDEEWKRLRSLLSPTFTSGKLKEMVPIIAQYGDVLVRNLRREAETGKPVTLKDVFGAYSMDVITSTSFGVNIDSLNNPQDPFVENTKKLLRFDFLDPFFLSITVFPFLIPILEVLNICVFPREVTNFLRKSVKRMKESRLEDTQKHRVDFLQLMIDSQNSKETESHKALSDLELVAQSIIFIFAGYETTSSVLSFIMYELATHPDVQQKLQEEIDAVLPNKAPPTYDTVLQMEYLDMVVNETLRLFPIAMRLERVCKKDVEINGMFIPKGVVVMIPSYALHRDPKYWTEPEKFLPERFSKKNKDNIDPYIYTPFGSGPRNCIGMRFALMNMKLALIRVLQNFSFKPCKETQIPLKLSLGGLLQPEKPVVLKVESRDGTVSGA
T3 sequence (P10635 whole entry): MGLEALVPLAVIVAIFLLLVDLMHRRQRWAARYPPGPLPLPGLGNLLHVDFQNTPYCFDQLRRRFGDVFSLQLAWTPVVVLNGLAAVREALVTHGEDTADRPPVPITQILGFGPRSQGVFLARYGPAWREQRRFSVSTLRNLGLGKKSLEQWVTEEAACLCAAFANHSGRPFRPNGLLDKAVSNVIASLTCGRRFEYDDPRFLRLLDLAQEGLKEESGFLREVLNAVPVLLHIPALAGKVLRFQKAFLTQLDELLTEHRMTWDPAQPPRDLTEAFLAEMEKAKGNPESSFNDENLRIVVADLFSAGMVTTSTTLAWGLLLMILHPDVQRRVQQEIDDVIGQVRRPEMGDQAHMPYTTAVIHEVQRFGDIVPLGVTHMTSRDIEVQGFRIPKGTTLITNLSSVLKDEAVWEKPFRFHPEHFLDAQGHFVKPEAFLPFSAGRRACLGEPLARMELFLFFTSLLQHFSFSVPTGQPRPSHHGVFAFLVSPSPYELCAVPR
T2 sequence (P33261 whole entry): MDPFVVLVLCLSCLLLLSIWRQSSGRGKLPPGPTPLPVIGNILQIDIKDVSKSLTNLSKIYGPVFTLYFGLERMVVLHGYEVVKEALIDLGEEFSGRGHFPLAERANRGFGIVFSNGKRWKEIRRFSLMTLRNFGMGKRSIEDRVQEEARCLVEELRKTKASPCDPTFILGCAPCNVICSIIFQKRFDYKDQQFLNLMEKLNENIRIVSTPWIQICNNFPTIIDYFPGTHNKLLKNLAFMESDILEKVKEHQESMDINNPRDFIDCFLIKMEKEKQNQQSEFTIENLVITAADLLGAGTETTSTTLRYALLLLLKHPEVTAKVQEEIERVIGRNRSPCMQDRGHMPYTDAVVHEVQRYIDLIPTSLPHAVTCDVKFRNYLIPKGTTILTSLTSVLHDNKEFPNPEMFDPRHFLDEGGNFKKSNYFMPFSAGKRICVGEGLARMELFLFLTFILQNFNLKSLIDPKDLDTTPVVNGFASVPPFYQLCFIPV
T1 sequence (P11712 whole entry): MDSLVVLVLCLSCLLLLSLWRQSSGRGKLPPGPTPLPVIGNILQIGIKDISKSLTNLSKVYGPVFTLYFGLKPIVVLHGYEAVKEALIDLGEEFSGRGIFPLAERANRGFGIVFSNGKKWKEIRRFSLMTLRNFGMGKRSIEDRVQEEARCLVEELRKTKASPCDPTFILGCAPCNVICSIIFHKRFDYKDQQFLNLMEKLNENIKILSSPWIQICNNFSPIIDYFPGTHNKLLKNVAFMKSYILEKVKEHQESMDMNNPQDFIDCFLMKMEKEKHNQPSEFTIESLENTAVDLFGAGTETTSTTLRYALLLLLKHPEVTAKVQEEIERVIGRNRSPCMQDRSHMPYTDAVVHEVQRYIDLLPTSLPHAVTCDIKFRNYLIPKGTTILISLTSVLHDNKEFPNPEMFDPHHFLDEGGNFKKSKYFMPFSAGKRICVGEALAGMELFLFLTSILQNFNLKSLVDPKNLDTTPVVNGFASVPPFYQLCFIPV

Compound	half-life at 1 μg/mL [1] [h]	half-life at 1 μg/mL [2] [h]	half-life at 1 μg/mL [3] [h]	pIC50 (CYP2C9)	pIC50 (CYP2C19)	pIC50 (CYP2D6; [4])	pIC50 (CYP3A4)	pIC50 (CYP2D6)
COc1cc2c(NC3CCN(C(C)C)CC3)nc(N3CCC3)nc2cc1OCCCN1CCCC1 [Compound 234, 2-(azetidin-1-yl)-N-(1-isopropylpiperidin-4-yl)-6-methoxy-7-(3-(pyrrolidin-1-yl)propoxy)quinazolin-4-amine]	> 1	> 1	> 1	< 4.00	< 4.00	4.11	< 4.00	–
COc1cc2c(NCC3CCN(C)CC3)nc(N3CCC(F)(F)CC3)nc2cc1OCCCN1CCCC1 [Compound 5, 2-(4,4-difluoropiperidin-1-yl)-6-methoxy-N-((1-methylpiperidin-4-yl)methyl)-7-(3-(pyrrolidin-1-yl)propoxy)quinazolin-4-amine]	> 1	> 1	> 1	< 4.00	< 4.00	< 4.00	< 4.00	–
COc1cc2c(NC3CCN(C(C)C)CC3)nc(-n3ccnc3)nc2cc1OCCCN1CCCC1 [Compound 156, 2-(1H-imidazol-1-yl)-N-(1-isopropylpiperidin-4-yl)-6-methoxy-7-(3-(pyrrolidin-1-yl)propoxy)quinazolin-4-amine]	> 1	> 1	0.988	< 4.00	< 4.00	5.33	< 4.00	–
COc1cc2c(Nc3ccncc3)nc(-n3ccnc3)nc2cc1OCCCN1CCCC1 [Compound 130, 2-(1H-imidazol-1-yl)-6-methoxy-N-(pyridin-4-yl)-7-(3-(pyrrolidin-1-yl)propoxy)quinazolin-4-amine]	> 1	> 1	0.535	4.18	4.12	5.31	5.41	–
COc1cc2c(NC3CCS(=O)(=O)CC3)nc(N3CCS(=O)(=O)CC3)nc2cc1OCCCN1CCCC1 [Compound 103, 4-(4-((1,1-dioxidotetrahydro-2H-thiopyran-4-yl)amino)-6-methoxy-7-(3-(pyrrolidin-1-yl)propoxy)quinazolin-2-yl)thiomorpholine 1,1-dioxide]	> 1	> 1	> 1	< 4.00	< 4.00	< 4.00	< 4.00	–
COc1cc2c(NC3CCS(=O)(=O)CC3)nc(N3CCC(F)(F)CC3)nc2cc1C#CCN1CCCC1 [Compound 248, 4-((2-(4,4-difluoropiperidin-1-yl)-6-methoxy-7-(3-(pyrrolidin-1-yl)prop-1-yn-1-yl)quinazolin-4-yl)amino)tetrahydro-2H-thiopyran 1,1-dioxide]	0.63	0.282	> 1	< 4.00	< 4.00	4.25	< 4.00	–
COc1cc2c(NC3CCOCC3)nc(N3CCN(C)CC3)nc2cc1OCCCN1CCCC1 [Compound 236, 6-methoxy-2-(4-methylpiperazin-1-yl)-7-(3-(pyrrolidin-1-yl)propoxy)-N-(tetrahydro-2H-pyran-4-yl)quinazolin-4-amine]	> 1	> 1	0.38	< 4.00	< 4.00	< 4.00	< 4.00	–
COc1cc2c(N[C@@H]3CCCNC3)nc(N3CCCC3)nc2cc1OCCCN1CCCC1 [Compound 159, (R)-6-methoxy-N-(piperidin-3-yl)-2-(pyrrolidin-1-yl)-7-(3-(pyrrolidin-1-yl)propoxy)quinazolin-4-amine]	> 1	0.555	0.655	< 4.00	< 4.00	4.29	< 4.00	–
COc1cc2c(N[C@H]3CCCNC3)nc(N3CCCC3)nc2cc1OCCCN1CCCC1 [Compound 158, (S)-6-methoxy-N-(piperidin-3-yl)-2-(pyrrolidin-1-yl)-7-(3-(pyrrolidin-1-yl)propoxy)quinazolin-4-amine]	> 1	0.55	0.637	< 4.00	< 4.00	4.18	< 4.00	–
COc1cc2c(NC3CCS(=O)(=O)CC3)nc(N3CCCN(C)CC3)nc2cc1OCCCN1CCCC1 [Compound 110, 4-((6-methoxy-2-(4-methyl-1,4-diazepan-1-yl)-7-(3-(pyrrolidin-1-yl)propoxy)quinazolin-4-yl)amino)tetrahydro-2H-thiopyran 1,1-dioxide]	> 1	> 1	> 1	< 4.00	< 4.00	< 4.00	< 4.00	–
COc1cc2c(NC3CCN(C(C)C)CC3)nc(N3CCC(F)(F)CC3)nc2cc1OCCCN1CCCC1 [Compound 400, 2-(4,4-difluoropiperidin-1-yl)-N-(1-isopropylpiperidin-4-yl)-6-methoxy-7-(3-(pyrrolidin-1-yl)propoxy)quinazolin-4-amine, reference compound]	> 1	> 1	> 1	< 4.00	< 4.00	–	< 4.00	4.54

From patent publication US11485728B2, “Small molecules for the treatment of autoimmune diseases and cancer” (Athos Therapeutics, Inc., priority 2020, dated 2022)
